According to the supplement of paper PMC10307832:

What was measured:
Assay in all cases: relative viability (nuclei count vs DMSO), 5 days (fraction); higher = more cells survive
[1] = compound: CN1CCC(CC1)OC2=CC(=C(C=C2)NC3=NC=C4C(=N3)N(C(=O)N4C)C5CCCC5)OC [AZ3146] + CC(=O)c1c(C)c2cnc(Nc3ccc(N4CCNCC4)cn3)nc2n(C2CCCC2)c1=O [Palbociclib] (partner 0.5 µM)
Method in brief: (§1)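 One day after seeding in 1536-well plates, lung cancer cell lines were dosed by pin tool. Dosing was either single-drug or a fixed anchor-drug dose plus five library-drug doses (not always all listed) in √10 steps. After 5 days, nuclei were stained in one fix-and-stain step and counted on 4× images, and relative viability is the nuclei count of treated wells over that of vehicle wells, given as the median of duplicate plates.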

[2] = compound: CN1CCC(CC1)OC2=CC(=C(C=C2)NC3=NC=C4C(=N3)N(C(=O)N4C)C5CCCC5)OC [AZ3146] + CC1(C)CCC(c2ccc(Cl)cc2)=C(CN2CCN(c3ccc(C(=O)NS(=O)(=O)c4ccc(N[C@H](CCN5CCOCC5)CSc5ccccc5)c(S(=O)(=O)C(F)(F)F)c4)cc3)CC2)C1 [Navitoclax] (partner 0.5 µM)
Method in brief: as §1

[3] = compound: CCOC(=O)CCNc1cc(N2CCc3ccccc3CC2)nc(-c2ccccn2)n1 [GSK-J4] + Cc1cc(Nc2cc(N3CCN(C)CC3)nc(Sc3ccc(NC(=O)C4CC4)cc3)n2)n[nH]1 [Tozasertib] (partner 0.1 µM)
Method in brief: as §1

[4] = compound: CN1CCC(CC1)OC2=CC(=C(C=C2)NC3=NC=C4C(=N3)N(C(=O)N4C)C5CCCC5)OC [AZ3146] + C[C@]1(O)C[C@@H](c2nc(-c3ccc4ccc(-c5ccccc5)nc4c3)c3c(N)nccn32)C1 [Linsitinib] (partner 1 µM)
Method in brief: as §1

Cell Line | relative viability ([1]; first compound 0.08 µM) | relative viability ([1]; first compound 0.253 µM) | relative viability ([1]; first compound 0.8 µM) | relative viability ([1]; first compound 2.53 µM) | relative viability ([1]; first compound 8 µM) | relative viability ([2]; first compound 0.08 µM) | relative viability ([2]; first compound 0.253 µM) | relative viability ([2]; first compound 0.8 µM) | relative viability ([2]; first compound 2.53 µM) | relative viability ([2]; first compound 8 µM) | relative viability ([3]; first compound 0.5 µM) | relative viability ([3]; first compound 1.581 µM) | relative viability ([3]; first compound 5 µM) | relative viability ([3]; first compound 15.81 µM) | relative viability ([3]; first compound 50 µM) | relative viability ([4]; first compound 0.08 µM) | relative viability ([4]; first compound 0.253 µM) | relative viability ([4]; first compound 0.8 µM) | relative viability ([4]; first compound 2.53 µM) | relative viability ([4]; first compound 8 µM)
NCI-H647 | 0.356 | 0.364 | 0.357 | 0.346 | 0.367 | 1.06 | 1.07 | 1.16 | 1.1 | 0.893 | 0.315 | 0.192 | 0.178 | 0.28 | 0.155 | 1.14 | 1.3 | 1.1 | 1.16 | 0.434
NCI-H1975 | 0.534 | 0.548 | 0.562 | 0.552 | 0.309 | 1.19 | 1.18 | 1.14 | 1.17 | 1.01 | 0.721 | 0.716 | 0.539 | 0.659 | 0.798 | 0.988 | 0.986 | 1 | 0.978 | 0.352
BEN |  | 0.47 | 0.511 | 0.479 | 0.471 |  | 0.0708 | 0.0628 | 0.0467 | 0.176 | 0.514 | 0.41 | 0.609 | 0.375 | 0.492 |  | 0.919 | 0.703 | 1.01 | 0.843
NCI-H1437 | 0.311 | 0.29 | 0.303 | 0.314 | 0.27 | 1.02 | 1.09 | 1.07 | 1.13 | 1.14 | 0.391 | 0.372 | 0.384 | 0.377 | 0.293 | 0.967 | 0.996 | 1.01 | 1.04 | 1.03
NCI-H1666 | 0.586 | 0.659 | 0.672 | 0.663 | 0.656 | 0.859 | 0.805 | 0.951 | 1.05 | 0.81 | 0.606 | 0.499 | 0.635 | 0.534 | 0.502 | 0.738 | 0.862 | 0.906 | 0.829 | 0.858
NCI-H2085 | 0.489 | 0.472 | 0.475 | 0.497 | 0.432 | 1.03 | 1.14 | 1.06 | 1.08 | 1.03 | 0.765 | 0.733 | 0.756 | 0.806 | 0.652 | 0.898 | 0.848 | 0.956 | 0.912 | 0.727
LXF-289 | 0.574 | 0.603 | 0.564 | 0.595 | 0.579 | 0.94 | 1.03 | 0.883 | 0.943 | 0.926 | 0.198 | 0.154 | 0.132 | 0.166 | 0.204 | 0.885 | 1.01 | 0.965 | 0.957 | 0.939
NCI-H322M | 0.475 | 0.465 | 0.461 | 0.518 | 0.471 | 1.24 | 1.12 | 1.1 | 1.24 | 1.23 | 0.457 | 0.393 | 0.484 | 0.442 | 0.507 | 0.937 | 0.884 | 0.868 | 0.991 | 0.842
LU99A |  | 0.464 | 0.428 | 0.377 | 0.455 | 0.698 | 0.764 | 1.01 | 0.868 | 0.834 | 0.233 | 0.276 |  | 0.281 | 0.253 | 0.419 | 0.556 | 0.589 | 0.502 | 0.557
PC-14 | 0.524 | 0.606 | 0.518 | 0.571 | 0.0919 | 0.959 | 1.02 | 1.12 | 1.11 | 0.898 | 0.547 | 0.542 |  | 0.564 | 0.665 | 1.05 | 0.995 | 0.98 | 1.03 | 0.941
HARA | 0.274 | 0.239 | 0.266 | 0.241 | 0.243 | 1.13 | 1.08 | 1.13 | 1.13 | 1.11 | 0.124 |  |  | 0.103 | 0.117 | 0.821 | 0.95 | 1.01 | 0.993 | 0.935
NCI-H1944 | 0.302 | 0.322 | 0.298 | 0.39 | 0.326 |  | 1.02 | 1 | 1.13 | 1.15 | 0.257 | 0.238 | 0.248 | 0.243 | 0.255 |  | 1.11 | 1.14 | 1.21 | 1.35
LK-2 |  |  | 0.633 | 0.591 | 0.71 | 0.686 | 0.889 | 0.994 | 0.911 | 0.929 | 0.165 |  | 0.167 | 0.164 | 0.147 | 0.672 | 0.645 | 0.562 | 0.519 | 0.729
HCC-44 | 0.966 | 0.977 | 1.05 | 0.959 | 0.935 | 0.877 | 1.04 | 0.985 | 1.01 | 1.01 | 0.809 | 0.803 |  | 0.646 | 0.688 | 0.598 | 0.618 | 0.685 | 0.718 | 0.675
CAL-12T | 0.391 | 0.502 | 0.45 | 0.523 | 0.229 | 1.21 | 1.28 | 1.24 | 1.32 | 1.17 | 0.304 | 0.324 | 0.336 | 0.264 | 0.357 | 0.867 | 0.756 | 0.824 | 0.885 | 0.932
NCI-H2405 | 0.516 | 0.546 | 0.504 | 0.505 | 0.508 | 0.836 |  | 1 | 0.859 | 1.08 | 0.743 | 0.703 |  | 0.719 | 0.671 | 0.973 |  | 1.04 | 0.937 | 0.747
